These results are taken from ChEMBL document CHEMBL1255296, “Effect of 14-membered-ring macrolides on production of interleukin-8 mediated by protease-activated receptor 2 in human keratinocytes” (Antimicrob Agents Chemother, 2008).

The target in data set [1] is Proteinase-activated receptor 2 (Homo sapiens) (UniProt P55085). Description: Inhibition of PAR2-mediated SLIGKV-NH2-induced interleukin-8 production in normal human epidermal keratinocytes preincubated for 24 hrs by ELISA. For orientation: An ELISA detects its analyte on a solid surface through an enzyme-linked reagent.
Proteinase-activated receptor 2 (Homo sapiens), sequence (P55085 whole entry): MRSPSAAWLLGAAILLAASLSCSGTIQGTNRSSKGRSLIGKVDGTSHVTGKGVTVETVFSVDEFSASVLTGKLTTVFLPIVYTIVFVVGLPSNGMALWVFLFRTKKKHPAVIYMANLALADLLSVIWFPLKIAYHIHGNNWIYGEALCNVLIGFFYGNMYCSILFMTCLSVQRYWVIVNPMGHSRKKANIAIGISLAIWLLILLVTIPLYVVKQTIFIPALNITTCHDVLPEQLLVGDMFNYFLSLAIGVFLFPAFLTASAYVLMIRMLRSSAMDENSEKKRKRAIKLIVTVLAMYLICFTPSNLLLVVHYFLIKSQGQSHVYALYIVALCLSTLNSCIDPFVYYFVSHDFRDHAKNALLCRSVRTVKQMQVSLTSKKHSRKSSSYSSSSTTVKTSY
For data set [2] the target is unchanged. Put plainly: Inhibition of PAR2-mediated IL1-beta and SLIGKV-NH2-induced interleukin-8 production in normal human epidermal keratinocytes at 10 uM by ELISA.
Data set [3] has the same target. Description: Inhibition of PAR2-mediated SLIGKV-NH2-induced interleukin-8 production in normal human epidermal keratinocytes up to 100 uM preincubated for 24 hrs by ELISA.
The nature of data set [4]: Toxicity in normal human epidermal keratinocytes assessed as effect on cell viability at 10 uM after 72 hrs by colorimetric assay. In kind it is cell-based. Conditions: keratinocyte.
Data set [5] in a line: Toxicity in normal human epidermal keratinocytes assessed as effect on cell viability at 100 uM after 72 hrs by colorimetric assay. Conditions: keratinocyte. In kind it is cell-based.
The subject of data set [6] is Keratinocyte. Put plainly: Effect on PAR2 gene expression in normal human epidermal keratinocytes assessed as effect on cell viability at 10 uM after 72 hrs. In kind it is functional, cell-based.
Data set [7] deals with Keratinocyte. Description: Effect on PAR2 gene expression in normal human epidermal keratinocytes assessed as effect on cell viability at 100 uM after 72 hrs. In kind it is functional, cell-based.
The target of data set [8] is Proteinase-activated receptor 2 (Homo sapiens) (UniProt P55085). Description: Inhibition of PAR2-mediated SLIGKV-NH2-induced interleukin-8 production in normal human epidermal keratinocytes at 10 uM preincubated for 24 hrs by ELISA.
Data set [9] shares this target. Put plainly: Inhibition of PAR2-mediated SLIGKV-NH2-induced interleukin-8 production in normal human epidermal keratinocytes at 100 uM preincubated for 24 hrs by ELISA.
The target is the same in data set [10]. Put plainly: Inhibition of PAR2-mediated SLIGKV-NH2-induced interleukin-8 production in normal human epidermal keratinocytes at 5 uM preincubated for 24 hrs by ELISA.

Calls of active or inactive are those of the source. The rule behind the calls is not given here.

In the case of `CO[C@@H]1[C@@H](O[C@@H]2O[C@H](C)[C@@H](O[C@H]3C[C@@](C)(O)[C@@H](OC(=O)CC(C)C)[C@H](C)O3)[C@H](N(C)C)[C@H]2O)[C@@H](CC=O)C[C@@H](C)[C@@H](O)/C=C/C=C/C[C@@H](C)OC(=O)C[C@H]1OC(C)=O`, the inhibition entry in [1] is “inactive”.

Consider `CO[C@H]1C[C@H](O[C@H]2[C@H](C)[C@@H](O[C@@H]3O[C@H](C)C[C@H](N(C)C)[C@H]3O)[C@@H](C)C[C@@]3(CO3)C(=O)[C@H](C)[C@@H](O)[C@@H](C)[C@@H](C)OC(=O)[C@@H]2C)O[C@@H](C)[C@@H]1O`, for which, in data set [1], the inhibition entry was “inactive”.

Regarding `CC[C@H]1OC(=O)[C@H](C)[C@@H](O[C@H]2C[C@@](C)(OC)[C@@H](O)[C@H](C)O2)[C@H](C)[C@@H](O[C@@H]2O[C@H](C)C[C@H](N(C)C)[C@H]2O)[C@](C)(OC)C[C@@H](C)C(=O)[C@H](C)[C@@H](O)[C@]1(C)O` [CLARITHROMYCIN], in data set [2], the inhibition result was “Active”. The inhibition entry in data set [3] was “inactive”. The Activity entry in data set [4] and in data set [5] was “Non-toxic” each time. The outcome in the data set on Keratinocyte [6] and in the data set on Keratinocyte [7] was inactive.

As to `CC[C@H]1OC(=O)[C@H](C)[C@@H](O[C@H]2C[C@@](C)(OC)[C@@H](O)[C@H](C)O2)[C@H](C)[C@@H](O[C@@H]2O[C@H](C)C[C@H](N(C)C)[C@H]2O)[C@](C)(O)C[C@@H](C)C(=O)[C@H](C)[C@@H](O)[C@]1(C)O` [ERYTHROMYCIN], the inhibition entry in data set [2], in [8], in data set [9] and in data set [10] was “Active” throughout. Besides, the Activity result in data set [4] and in [5] was “Non-toxic” throughout. Moreover, the outcome in the data set with Keratinocyte [6] and in the data set with Keratinocyte [7] was inactive.

On to `CC[C@H]1OC(=O)[C@H](C)[C@@H](O[C@H]2C[C@@](C)(OC)[C@@H](O)[C@H](C)O2)[C@H](C)[C@@H](O[C@@H]2O[C@H](C)C[C@H](N(C)C)[C@H]2O)[C@](C)(O)C[C@@H](C)/C(=N\OCOCCOC)[C@H](C)[C@@H](O)[C@]1(C)O` [ROXITHROMYCIN], for which the inhibition result in data set [2], in [8] and in data set [9] was “Active” each time. Moreover, the Activity result in data set [4] and in [5] was “Non-toxic” in each case. In addition, the outcome with Keratinocyte [6] and in the data set on Keratinocyte [7] was inactive.

In the case of SPIRAMYCIN, the inhibition entry in data set [1] is “inactive”.
